Entries after “also recorded” stand apart in the source; their conditions may differ.
Legend:
[1] = tested on: NF-κB DNA binding in MEF cells; assay: EMSA of NF-κB DNA binding in TNF-α-treated MEF cells; type: cell-based, mouse; conditions: peptide 10-50 μM
Method: To prepare nuclear and cytoplasmic protein extracts, HeLa, MEF, and RAW 264.7 cells were lysed in buffer containing 4.3 mM Na2HPO4, 1.47 mM KH2PO4 pH 7.4, 137 mM NaCl, 2.7 mM KCl, 1 mM DTT, 0.05% (v/v) NP-40, and 1×protease inhibitor cocktail for 10 minutes on ice and spun at 3,000 rpm at 4° C. for 10 minutes. The supernatant containing the cytoplasmic fraction was quantified by Bio-Rad protein assay to determine the total amount of protein. […] Finally, samples were centrifuged at 13,000 rpm at 4° C. for 20 minutes, and supernatants containing the soluble nuclear fraction were measured by the Bio-Rad protein assay to determine the total amount of protein. […]
Electrophoretic mobility shift assay (EMSA) was performed using recombinant full length NF-κB ReIA homodimer as a positive control as previously described (45). […] The amount of protein in lysates was quantified by Bio-Rad protein assay. EMSA analysis with quantitative densitometry and signal intensity was quantitated using ImageJ software. […]
It was then tested if the observed effect is universal across species and cell types. […] The effect of TAT-NEMO^ActPep on NF-κB DNA binding was also analyzed in MEF cells by EMSA.

[2] = tested on: canonical NF-κB signaling through IKK2 in HeLa cells; assay: Western blot of canonical NF-κB signaling in TNF-α-treated HeLa cells; type: cell-based, human; conditions: increasing peptide concentrations
Method: To prepare nuclear and cytoplasmic protein extracts, HeLa, MEF, and RAW 264.7 cells were lysed in buffer containing 4.3 mM Na2HPO4, 1.47 mM KH2PO4 pH 7.4, 137 mM NaCl, 2.7 mM KCl, 1 mM DTT, 0.05% (v/v) NP-40, and 1×protease inhibitor cocktail for 10 minutes on ice and spun at 3,000 rpm at 4° C. for 10 minutes. The supernatant containing the cytoplasmic fraction was quantified by Bio-Rad protein assay to determine the total amount of protein. Pellets were resuspended in nuclear extraction buffer (25 mM Tris-HCl pH 7.5, 420 mM NaCl, 10% glycerol, 0.2 mM EDTA, 1 mM DTT, 0.5 mM PMSF, 1×protease inhibitor cocktail) once and then subjected to three lysis cycles (freeze at −80° C. and thaw at 37° C.). Finally, samples were centrifuged at 13,000 rpm at 4° C. for 20 minutes, and supernatants containing the soluble nuclear fraction were measured by the Bio-Rad protein assay to determine the total amount of protein. Nuclear and cytoplasmic extracts were aliquoted and kept at −80° C.
HeLa, MEF, RAW 264.7 cells were cultured in Dulbecco's MEM containing 10% fetal bovine […] supplemented with penicillin and streptomycin, at 37° C. in a humidity incubator with 5% CO2. RAW 264.7 cells were seeded and allowed to adhere for 24 hours then treated with NEMO^ActPep or NEMO^ActPep 6G at different concentrations 60 min before the LPS challenge (100 ng/ml). After 2 hours, nuclear and cytoplasmic extracts were collected. HeLa and MEF cells seeded for 24 hours then treated with NEMO^ActPep or NEMO^ActPep 6G at different concentrations 60 min before the TNF-α challenge (10 ng/ml) for 15 minutes and then nuclear and cytoplasmic extracts were collected. MEF cells were treated with NEMO^ActPep or NEMO^ActPep 6G at different concentrations 1 hour before the LTβR challenge (300 ng/ml). After 24 hours whole cell extracts were collected and aliquoted and kept at −80° C. for further experiments.
Equivalent amounts of protein from cell extracts was separated by SDS-PAGE and transferred to polyvinylidene fluoride (PVDF) membranes (Millipore, Bedford, MA, USA). The membrane was blocked with 5% bovine serum albumin (BSA) for 1 hour at room temperature and then the membrane was incubated with the primary antibodies overnight at 4° C. Antibodies for IKK2, His, HA, Myc, GST, Ubiquitin, IκBα, phospho-IKK2, p65/ReIA, p84, γ-Actin, p100/52, phospho-ERK, phospho-JNK, phospho-p38, ERK, JNK, and p38 were used for detecting multiple specific protein targets. After binding of an appropriate secondary antibody coupled to horseradish peroxidase, the immunoreactive bands were visualized by enhanced chemiluminescence substrate.
The inhibitory effects of TAT-NEMO^ActPep were further verified on canonical NF-κB signaling in HeLa cells by assessing IKK2 activation loop phosphorylation, IκBα degradation, and NF-κB ReIA/p65 subunit subcellular localization. Consistent with the observations of decreased nuclear NF-κB DNA binding activity by EMSA, treatment with TAT-NEMO^ActPep blocked IKK2 phosphorylation, IκBα proteolysis, and nuclear translocation of ReIA (FIG. 5B).

Substance: TAT-NEMO^ActPep: HIV-1 TAT fused flexibly to human NEMO amino acids 375-391; cell permeable version of NEMO activation peptide (SEQ ID NO 2) (YGRKKRRQRRRGGLSSPLALPSQRRSPPEE)
- NF-κB activation in response to TNF-α (EMSA) [1]: inhibited NF-κB activation
- IKK2 activation loop phosphorylation (western blot) [2]: blocked; also recorded: significantly diminished
- IκBα degradation / proteolysis (western blot) [2]: blocked; also recorded: significantly diminished
- NF-κB ReIA/p65 subunit nuclear localization (western blot) [2]: blocked; also recorded: significantly diminished
